Key:
wild-type astrocytes = test: Fura-2 Ca2+ imaging in wild-type astrocytes; format: cell-based, mice; conditions: brief (<1 sec) pressure application; 500 μM TFLLR, 300 μM ATP, 180 μM bradykinin; Fura-2-AM
Description: (§1) FIG. 1a is a schematic illustrating experimental setup and a GFP fluorescent image of astrocyte—GluR1(L497Y)/GFP transfected HEK cell co-culture (upper left panel). […] The Fura2-AM loading was performed by incubating with 5 μM Fura2-AM in 1 μM pluronic acid (Molecular Probes) for 30 min at room temperature. The calibration bar is 20 μm.

[1] = tested on: cultured cortical astrocytes; test: sniffer-patch detection of glutamate release from cultured wild-type astrocytes with GluR1(L497Y)-transfected HEK cells; format: cell-based, mice; conditions: for inward current in HEK cells expressing GluR1(L497Y): brief (<1 sec) pressure application, 500 μM TFLLR, 300 μM ATP, 180 μM bradykinin, wild-type astrocytes
Description: (§2) HEK 293 cells were transfected with a 1:3.5 ratio of GFP and GluR1(L497Y) using the calcium phosphate method using effectence for 6-8 hours, after which the media was replaced and supplemented with 1 mM kynurenic acid and 10 μM N-(4-hydroxyphenylpropanoyl) spermine or 10 μM CNQX. The transfected HEK cells were subsequently trypsinized and replated onto astrocyte feeder layers derived from either wild-type or PAR1−/− mice 24 hours post-transfection, and recordings were performed 24 hours after replating. The prepared transfectant was used as a biosensor in the following examples.
In this experimental example, the glutamate release from astrocytes was quantitatively evaluated in real time by a “sniffer-patch” detection system. […] The “sniffer-patch” method was performed according to “T. G. J. Allen, Trends Neurosci., Vol. 20, No. 5 pp. […], 1997”, unless there is different mention thereto.
Cultured astrocytes were prepared from P0-P3 postnatal mice obtained from KIST SPF. The cerebral cortex was dissected free of adherent meninges, minced, and dissociated into single cell suspension by trituration through a Pasteur pipette. All procedures involving the use of animals were reviewed and approved by the Emory University IACUC. Dissociated cells were plated onto either 12 mm glass coverslips or 6 well plates coated with 0.1 mg/ml poly-D-lysine. Cells were grown in DMEM media (Gibco, cat# 11960-044) supplemented with 25 mM glucose, 10% heat-inactivated horse serum, and 10% heat-inactivated fetal bovine serum, 2 mM glutamine, and 1000 units/ml penicillin-streptomycin. Cultures were maintained at 37° C. in a humidified 5% CO2-containing atmosphere. Astrocyte cultures prepared in this way were previously determined by GFAP (glial fibrillary acidic protein) staining to be greater than 95% astrocytes (Nicole et al., 2005). In some experiments, the culture media was replaced 24 hours after plating with DMEM with all added components except glutamine, and cultures were maintained for 4 days before experimentation in glutamine-free media.
Thus, this technique provides millisecond time resolution for the detection of micromolar levels of glutamate released from astrocytes.
(§3) GluR1(L497Y)-transfected HEK cells were directly plated onto an astrocyte monolayer, and subsequently the whole cell HEK current response under voltage clamp during brief 0.2 sec application of the PAR1 activator TFLLR (500 μM), ATP (300 μM), or bradykinin (180 μM), respectively, from a pressurized pipette was recorded (FIGS. 1a, and 1b).

cultured neurons = test: glutamate release from cultured neurons detected with GluR1(L497Y)-transfected HEK cells; format: cell-based
Description: To verify this prediction, effects of a hyperosmotic solution on the glutamate-release from cultured neurons and astrocytes were evaluated and are shown in FIGS. 3a to 3c.
The detection is abolished by the treatment of 10 μM CNQX. The right panel is the summary of the current amplitude changes; *p<0.05; paired t-test (n=6).
That is, a brief application of TFLLR caused no detectable glutamate-induced current in GluR1(L497Y)-transfected HEK cells adjacent to neurons.

NR1-1a/NR2A2D = test: D-serine or glycine release from astrocytes detected with NR1-1a/NR2A2D-transfected HEK cells; format: cell-based; conditions: 100 uM glutamate + 10 uM DCKA vs 100 uM glutamate alone; 500 uM TFLLR
Description: HEK 293 cells were transfected NR1-1a and NR2A2D at a ratio of 1:2 by using the calcium phosphate method using effectence for 6-8 hours, after which the media was replaced and supplemented with 5 mM magnesium chloride and 10 μM D-2-amino-phosphonopentanoic acid or 10 μM D-AP5. The transfected HEK cells were subsequently trypsinized and replated onto astrocyte feeder layers derived from wild-type 24 hours post-transfection, and recordings performed 24 hours after replating. The prepared transfectant was used as a biosensor in the following examples.
To activate the NMDA receptor, it is necessary for the two subunits to bind to the corresponding binding materials, respectively. The activation may be confirmed by measuring intracellular inward current.
In this example, the media was supplemented with sufficient glutamate to saturate the glutamate domain. The intracellular inward current in the biosensor prepared in Example 5, under the conditions with or without treating a glycine binding domain blocker, DCKA, which artificially makes a glycine-free or D-serine-free condition, to examine the glycine or D-serine detecting ability of the biosensor.

GluR1(L497Y) = molecular target: T1, GluR1(L497Y) (Rattus norvegicus, UniProt P19490, L497Y); test: glutamate activation of GluR1(L497Y) current in transfected HEK cells (dose response); format: cell-based
T1 construct: expressed in transfected cells; host or cells: HEK 293 cells (ATCC1573)
Description: as §2

HEK cells = test: Ca2+-sensitive dye imaging in HEK cells (endogenous PAR1); format: cell-based; conditions: TFLLR application, co-culture on PAR1-/- astrocytes
Description: as §1
(§4) These control experiments were performed on the same day as TFLLR stimulation of HEK cells on wild-type astrocytes, and confirm that PAR1 activators had no direct effect on GluR1(L497Y) currents in HEK cells.

PAR1-/- astrocytes [2] = test: Ca2+-sensitive dye imaging in PAR1-/- astrocytes; format: cell-based, mice; conditions: TFLLR application
Description: as §1, §4

PAR1-/- astrocytes [3] = test: sniffer-patch detection of glutamate release from PAR1-/- astrocytes with GluR1(L497Y)-transfected HEK cells; format: cell-based, mice
Description: as §2, §3

[4] = tested on: acutely dissociated CA1 astrocytes; test: glutamate release from acutely dissociated CA1 hippocampal astrocytes detected with GluR1(L497Y)-transfected HEK cells; format: cell-based, mice; conditions: brief (1 sec) application of TFLLR; n=4
Text: Cells were acutely dissociated from the CA1 region of hippocampal slices prepared from transgenic mice (Jackson Laboratories) expressing GFP under control of the GFAP promoter (Brenner et al., 1994), allowing to unambiguously identify isolated hippocampal astrocytes that had not been subject to tissue culture. Cells were dissociated directly onto GluR1(L497Y)-transfected HEK cells obtained in Example 1.

T1 sequence (P19490 19-907 L497Y): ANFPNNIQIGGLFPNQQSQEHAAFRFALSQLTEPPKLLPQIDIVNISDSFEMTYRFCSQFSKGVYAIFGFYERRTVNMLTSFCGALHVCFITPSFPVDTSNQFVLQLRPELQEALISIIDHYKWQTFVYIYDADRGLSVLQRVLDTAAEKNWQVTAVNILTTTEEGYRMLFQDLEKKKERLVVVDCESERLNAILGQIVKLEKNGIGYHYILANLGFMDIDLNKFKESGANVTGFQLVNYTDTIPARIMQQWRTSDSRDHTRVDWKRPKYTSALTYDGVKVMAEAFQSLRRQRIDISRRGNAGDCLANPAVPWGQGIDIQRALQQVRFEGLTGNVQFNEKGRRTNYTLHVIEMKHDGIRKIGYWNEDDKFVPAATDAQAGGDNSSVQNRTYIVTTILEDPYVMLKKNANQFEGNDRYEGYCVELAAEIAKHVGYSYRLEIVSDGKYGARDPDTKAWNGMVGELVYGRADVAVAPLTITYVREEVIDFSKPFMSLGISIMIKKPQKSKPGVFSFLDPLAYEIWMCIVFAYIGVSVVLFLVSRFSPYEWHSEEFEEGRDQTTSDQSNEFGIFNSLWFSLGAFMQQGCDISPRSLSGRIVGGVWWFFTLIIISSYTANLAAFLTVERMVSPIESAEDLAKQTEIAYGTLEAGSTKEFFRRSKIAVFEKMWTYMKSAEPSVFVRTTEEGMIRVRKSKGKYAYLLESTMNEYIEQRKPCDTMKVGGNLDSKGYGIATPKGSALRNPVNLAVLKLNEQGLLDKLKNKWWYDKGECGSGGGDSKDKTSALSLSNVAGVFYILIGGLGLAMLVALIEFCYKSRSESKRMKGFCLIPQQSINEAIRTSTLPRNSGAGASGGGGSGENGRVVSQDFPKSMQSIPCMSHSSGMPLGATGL

## Nc1ncnc2c1ncn2[C@@H]1O[C@H](COP(=O)(O)OP(=O)(O)OP(=O)(O)O)[C@@H](O)[C@H]1O [ATP]
wild-type astrocytes
  astrocytic intracellular Ca2+: increased
[1]
  inward current in HEK cells expressing GluR1(L497Y): elicited an inward current

## N#Cc1cc2[nH]c(=O)c(=O)[nH]c2cc1[N+](=O)[O-] [CNQX]
Cultured neurons; 10 μM CNQX, hyperosmotic solution 530 mosmol
  effect on detection of neuronal glutamate release evoked by hyperosmotic solution: abolished
[1]; CNQX 10 μM, glutamine-free medium
  effect on inward currents evoked by TFLLR: completely abolished

## O=C(O)c1cc(=O)c2c(Cl)cc(Cl)cc2[nH]1 [DCKA, 5,7-dichlorokynurenic acid]
NR1-1a/NR2A2D
  inward current value after treating TFLLR: considerably decreased

## N[C@@H](CCC(=O)O)C(=O)O [glutamate]
GluR1(L497Y)
  Hill slope: 1.3

## TFLLR
Cultured neurons; 30 μM TFLLR or hyperosmotic solution, n=3
  glutamate-induced current in GluR1(L497Y) HEK cells adjacent to neurons: 3.0±0.1 pA
wild-type astrocytes
  astrocytic intracellular Ca2+: increased
HEK cells
  HEK cell intracellular Ca2+: did increase
PAR1-/- astrocytes [2]
  PAR1-/- astrocytic intracellular Ca2+: did not alter
PAR1-/- astrocytes [3]; PAR1-/- astrocyte cultures, TFLLR application, converted from current by Formula 1
  peak (maximum) glutamate concentration: 0.23 ± 0.13 µM
PAR1-/- astrocytes [3]; percent of maximal response, applied to PAR1-/- astrocytes
  glutamate evoked current (%): 1.4±0.9%
[4]
  glutamate release (concentration) evoked by TFLLR: 1.46 ± 0.54 µM
[1]; astrocytes cultured in the absence of glutamine, TFLLR 500 μM, n=4
  current response, % of the maximal response: 9.7 ± 1.3%
[1]
  inward current in HEK cells expressing GluR1(L497Y): elicited an inward current
[1]; percent of maximal response, applied to wild-type astrocytes, glutamine-containing medium, TFLLR 500 μM in pipette
  glutamate evoked current (%): 10±2.6%
[1]; same-day positive control, TFLLR or hyperosmotic solution, n=4
  glutamate-induced current in GluR1(L497Y) HEK cells on astrocytes: 136±35 pA
[1]; wild-type astrocyte cultures, TFLLR application, converted from current by Formula 1
  peak (maximum) glutamate concentration: 1.1 ± 0.24 µM

From patent US7842471B2, “Ultra sensitive biosensor for detecting bio-signal transmitters, and detector and detecting method using the same” (priority 2007, dated 2010)
